Test results: ChEMBL document CHEMBL1201862, “PubChem BioAssay data set” (2004)
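48-hour exposure; five concentrations; linearly interpolated endpoints. GI50 = concentration required for 50% inhibition of growth.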 Activity calls are given as the source filed them. Cut-off read from the data, not from the text of the source: active = GI50 up to about 1.1 µM and inactive = higher.

Assays:
Experiment in all cases: NCI tumour cell line growth inhibition, 48 h
XF498 = test system: XF498
Malme-3M = test system: Malme-3M
NCI-H226 = test system: NCI-H226
CAKI-1 = test system: CAKI-1
DLD-1 = test system: DLD-1
SF-268 = test system: SF-268
MCF7 = test system: MCF7
DMS-273 = test system: DMS-273
RPMI-8226 = test system: RPMI-8226
M19-MEL = test system: M19-MEL
EKVX = test system: EKVX
A498 = test system: A498
SNB-78 = test system: SNB-78
DMS-114 = test system: DMS-114
TK-10 = test system: TK-10
SR = test system: SR
M14 = test system: M14
ACHN = test system: ACHN
LXFL 529 = test system: LXFL 529
T47D = test system: T47D

O=c1ccn([C@@H]2C=C(CO)[C@@H](O)[C@H]2O)c(=O)[nH]1
GI50 (XF498): < 0.0625 µM (active) | GI50 (Malme-3M): > 625 µM (inactive) | GI50 (NCI-H226): > 625 µM (inactive) | GI50 (CAKI-1): > 625 µM (inactive) | GI50 (DLD-1): > 625 µM (inactive) | GI50 (SF-268): > 625 µM (inactive) | GI50 (MCF7): > 625 µM (inactive) | GI50 (DMS-273): > 625 µM (inactive)

COc1ccc(C2COc3cc(OC(C)=O)c(OC(C)=O)cc3C2)cc1 (centres undefined)
GI50 (XF498): 8.49 µM (inactive) | GI50 (Malme-3M): 23.2 µM (inactive) | GI50 (NCI-H226): 24.3 µM (inactive) | GI50 (RPMI-8226): 5.97 µM (inactive) | GI50 (M19-MEL): 14.2 µM (inactive) | GI50 (EKVX): 27.2 µM (inactive) | GI50 (A498): 4.54 µM (inactive) | GI50 (CAKI-1): 23 µM (inactive) | GI50 (SNB-78): 26.1 µM (inactive) | GI50 (DLD-1): 20.5 µM (inactive) | GI50 (DMS-114): 5.65 µM (inactive) | GI50 (SF-268): 12.3 µM (inactive) | GI50 (MCF7): 29.4 µM (inactive) | GI50 (DMS-273): 17.9 µM (inactive)

CCCN1C(=O)/C(=C(/O)C(=O)OCC)C(c2ccc(OC)c(OC)c2)C1=O (centres undefined)
GI50 (XF498): > 100 µM (inactive) | GI50 (Malme-3M): > 100 µM (inactive) | GI50 (NCI-H226): > 100 µM (inactive) | GI50 (RPMI-8226): > 93.8 µM (inactive) | GI50 (M19-MEL): > 100 µM (inactive) | GI50 (EKVX): > 100 µM (inactive) | GI50 (A498): > 100 µM (inactive) | GI50 (CAKI-1): > 100 µM (inactive) | GI50 (SNB-78): > 100 µM (inactive) | GI50 (DLD-1): > 100 µM (inactive) | GI50 (DMS-114): > 100 µM (inactive) | GI50 (SF-268): > 100 µM (inactive) | GI50 (MCF7): > 100 µM (inactive) | GI50 (DMS-273): > 100 µM (inactive)

CCCCN(C)/N=N/c1[nH]cnc1C(N)=O
GI50 (XF498): 32.4 µM (inactive) | GI50 (Malme-3M): > 86.9 µM (inactive) | GI50 (NCI-H226): > 100 µM (inactive) | GI50 (RPMI-8226): > 100 µM (inactive) | GI50 (M19-MEL): > 100 µM (inactive) | GI50 (EKVX): > 100 µM (inactive) | GI50 (A498): > 71.1 µM (inactive) | GI50 (CAKI-1): 20.3 µM (inactive) | GI50 (SNB-78): > 100 µM (inactive) | GI50 (DLD-1): > 100 µM (inactive) | GI50 (DMS-114): > 100 µM (inactive) | GI50 (SF-268): > 100 µM (inactive) | GI50 (MCF7): > 100 µM (inactive) | GI50 (DMS-273): 58.7 µM (inactive)

COc1ccc(/C=c2\sc3n(c2=O)CCN=3)cc1
GI50 (Malme-3M): 39.1 µM (inactive) | GI50 (M19-MEL): > 100 µM (inactive) | GI50 (TK-10): > 100 µM (inactive) | GI50 (EKVX): > 100 µM (inactive) | GI50 (SNB-78): > 100 µM (inactive) | GI50 (SR): > 100 µM (inactive) | GI50 (M14): > 100 µM (inactive) | GI50 (ACHN): > 100 µM (inactive) | GI50 (DLD-1): > 100 µM (inactive) | GI50 (LXFL 529): > 100 µM (inactive)

NCCCN(CCCN)CCN(CCN(CCCN)CCCN)CCN(CCCN)CCCN
GI50 (NCI-H226): > 100 µM (inactive) | GI50 (RPMI-8226): > 100 µM (inactive) | GI50 (TK-10): > 100 µM (inactive) | GI50 (CAKI-1): > 100 µM (inactive) | GI50 (SR): > 100 µM (inactive) | GI50 (M14): > 100 µM (inactive) | GI50 (ACHN): > 100 µM (inactive) | GI50 (T47D): 58.3 µM (inactive) | GI50 (MCF7): > 100 µM (inactive)

c1ccc(-n2cnnc2-c2nsc3ccccc23)cc1
GI50 (RPMI-8226): > 100 µM (inactive) | GI50 (M19-MEL): > 100 µM (inactive) | GI50 (TK-10): > 100 µM (inactive) | GI50 (EKVX): > 100 µM (inactive) | GI50 (SNB-78): > 100 µM (inactive) | GI50 (M14): > 100 µM (inactive) | GI50 (ACHN): 67.3 µM (inactive) | GI50 (SF-268): > 100 µM (inactive) | GI50 (LXFL 529): > 100 µM (inactive) | GI50 (DMS-273): > 100 µM (inactive)
